Reference: patent publication US20070015662A1, “Herbicide/safener combination” (Bayer CropScience GmbH, priority 2005, published 2007)

Experiments:
[1] = tested on: Sinapis alba, Echinochloa crus-galli, Lolium multiflorum, Chrysanthemum segetum, Setaria viridis, Abutilon theophrasti, Amaranthus retroflexus, Panicum …; assay: Post-emergence action against weeds (greenhouse pot test, visual scoring); assay type: in vivo, monocotyledonous and dicotyledonous weeds; conditions: post-emergence method, three-leaf stage; 500 g or less of herbicide (A) per hectare; herbicide/safener combination with safeners II-1, II-9, III-1, b-11, b-14, IX-A3; scored after about three to four weeks
Description: Seeds or rhizome pieces of monocotyledonous and dicotyledonous weeds were placed into sandy loam soil in plastic pots, covered with soil and grown in a greenhouse under good growth conditions. Three weeks after sowing, the test plants were treated at the three-leaf stage. The compounds according to the invention, formulated as wettable powders or as emulsion concentrates, were sprayed onto the green parts of the plants at various dosages using a water application rate of 300 to 800 I/ha (converted). The test plants were stood in the greenhouse under optimum growth conditions for about three to four weeks, and the action of the preparations was then scored visually in comparison to untreated controls. Post-emergence, too, the herbicide/safener combinations according to the invention have good herbicidal activity against a broad spectrum of economically important weed grasses and broad-leaved weeds.

[2] = tested on: cotton, oilseed rape, sugar beet and Gramineae crops such as barley, wheat, rye, millet, corn or rice; assay: Compatibility with crop plants (greenhouse, visual scoring); assay type: in vivo; conditions: pre-emergence method or post-emergence method; herbicide/safener combination with safeners II-1, II-9, III-1, b-11, b-14, IX-A3; four to five weeks after application
From the text: In further greenhouse trials, seeds of a relatively large number of crop plants and weeds were placed into sandy loam soil and covered with soil. Some of the pots were immediately treated as described in Section 1, the others were placed in a greenhouse until the plants had developed two to three true leaves and were then sprayed with various dosages of the herbicide/safener combinations according to the invention, as described in Section 2.

[3] = tested on: Sinapis alba, Chrysanthemum segetum, Avena sativa, Stellaria media, Echinochloa crus-galli, Lolium multiflorum, Setaria viridis, Abutilon theophrasti …; assay: Pre-emergence action against weeds (greenhouse pot test, optical scoring); assay type: in vivo, monocotyledonous and dicotyledonous weed plants; conditions: pre-emergence method; 500 g or less of herbicide (A) per hectare; herbicide/safener combination with safeners II-1, II-9, III-1, b-11, b-14, IX-A3; scored after 3 to 4 weeks
From the text: Seeds or rhizome pieces of monocotyledonous and dicotyledonous weed plants were placed in sandy loam soil in cardboard pots and covered with soil. The active compounds (A) and (B), formulated in the form of wettable powders or emulsion concentrates, were then applied to the surface of the covering soil in various dosages as aqueous suspensions or emulsions using a water application rate of 300 to 800 I/ha (converted).
After the treatment, the pots were placed in a greenhouse and kept under good growth conditions for the weeds. Optical scoring of the damage to the plants or emerged plants was carried out after emergence of the test plants after a trial period of 3 to 4 weeks, in comparison to untreated controls. As shown by the results, the tested herbicide/safener combinations have good herbicidal pre-emergence activity against a broad spectrum of weed grasses and broad-leaved weeds.

Compound	herbicidal activity against harmful plants (visual scoring vs untreated controls) [1]	damage to crop plants (visual scoring) [2]	herbicidal activity against harmful plants (optical scoring of damage vs untreated controls) [3]	melting point
CC1(C)CC(S(=O)(=O)Cc2cccc3c2OCCO3)=NO1 [I-21.1]	very good herbicidal activity	did not cause any damage	very good herbicidal activity	
CCC1(C)CC(S(=O)(=O)Cc2cccc3c2OC(F)(F)C(F)(F)O3)=NO1 (stereo not shown) [I-22.2]	very good herbicidal activity	did not cause any damage	very good herbicidal activity	
CCC1(C)CC(S(=O)(=O)Cc2cccc3c2OC(F)(F)O3)=NO1 (stereo not shown) [I-23.2]	very good herbicidal activity	did not cause any damage	very good herbicidal activity	
CC1(C)CC(S(=O)(=O)Cc2cccc3c2OC(F)(F)C(F)(F)O3)=NO1 [I-22.1]	very good herbicidal activity	did not cause any damage	very good herbicidal activity	
CCC1(C)CC(S(=O)(=O)Cc2cc3c(cc2Cl)OCO3)=NO1 (stereo not shown) [I-52.2]	very good herbicidal activity	did not cause any damage	very good herbicidal activity	
CC1(C)CC(S(=O)(=O)Cc2cccc3c2OCC3)=NO1 [I-24.1]	very good herbicidal activity	did not cause any damage	very good herbicidal activity	
CCC1(C)CC(S(=O)(=O)Cc2c(F)cccc2F)=NO1 (stereo not shown) [I-3.2]	very good herbicidal activity	did not cause any damage	very good herbicidal activity	
CCC1(C)CC(S(=O)(=O)Cc2cccc3c2OCCO3)=NO1 (stereo not shown) [I-21.2]	very good herbicidal activity	did not cause any damage	very good herbicidal activity	
CC1(C)CC(S(=O)(=O)Cc2cccc3c2OC(F)(F)O3)=NO1 [I-23.1]	very good herbicidal activity	did not cause any damage	very good herbicidal activity	
CCC1(C)CC(S(=O)(=O)Cc2cc(F)ccc2F)=NO1 (stereo not shown) [I-2.2]	very good herbicidal activity	did not cause any damage	very good herbicidal activity	
CCC1(C)CC(S(=O)(=O)Cc2cccc3c2OCC3)=NO1 (stereo not shown) [I-24.2]	very good herbicidal activity	did not cause any damage	very good herbicidal activity	
CC1(C)CC(S(=O)(=O)Cc2cc3c(cc2Cl)OCO3)=NO1 [I-52.1, 3-{[(6-Chloro-1,3-benzodioxol-5-yl)methyl]sulfonyl}-5,5-dimethyl-4,5-dihydroisoxazole]	very good herbicidal activity	did not cause any damage	very good herbicidal activity	170 °C
Cn1nc(C(F)(F)F)c(CS(=O)(=O)C2=NOC(C)(C)C2)c1OC(F)F [I-67.1]	very good herbicidal activity	did not cause any damage	very good herbicidal activity	
CC1(C)CC(S(=O)(=O)Cc2c(F)cccc2F)=NO1 [I-3.1]	very good herbicidal activity	did not cause any damage	very good herbicidal activity	
CCC1(C)CC(S(=O)(=O)Cc2c(C(F)(F)F)nn(C)c2OC(F)F)=NO1 (stereo not shown) [I-67.2]	very good herbicidal activity	did not cause any damage	very good herbicidal activity	
Cn1nc(C(F)(F)F)c(CS(=O)(=O)C2=NOC(C)(C)C2)c1Cl [I-77.1]	very good herbicidal activity	did not cause any damage	very good herbicidal activity	
